US20260015357A1, “MODULATORS OF NLRP3 INFLAMMASOME AND RELATED PRODUCTS AND METHODS” (Neumora Therapeutics, Inc., priority 2022, published 2026)

How the values were obtained:
NLRP3 inflammasome = target: T1, NLRP3 inflammasome (Homo sapiens, UniProt Q96P20); assay: NLRP3 inflammasome activation in LPS-primed, nigericin-activated THP1 macrophages, IL-1β AlphaLISA; assay type: cell-based; settings: PMA-differentiated, 1 hr compound, Nigericin 6.7 uM 3 hrs, IL-1β in supernatant
T1 construct: host or cells: THP1 human acute monocytic leukemia cells, PMA-differentiated, LPS-primed

IL-6 = IL-6 in supernatants of LPS-primed, nigericin-treated THP1 macrophages, Hu IL-6 AlphaLISA; assay type: cell-based; settings: Homo sapiens, THP-1, PMA-differentiated, 1 hr compound, Nigericin 6.7 uM 3 hrs, IL-6 in supernatant

T1 sequence (Q96P20 whole entry): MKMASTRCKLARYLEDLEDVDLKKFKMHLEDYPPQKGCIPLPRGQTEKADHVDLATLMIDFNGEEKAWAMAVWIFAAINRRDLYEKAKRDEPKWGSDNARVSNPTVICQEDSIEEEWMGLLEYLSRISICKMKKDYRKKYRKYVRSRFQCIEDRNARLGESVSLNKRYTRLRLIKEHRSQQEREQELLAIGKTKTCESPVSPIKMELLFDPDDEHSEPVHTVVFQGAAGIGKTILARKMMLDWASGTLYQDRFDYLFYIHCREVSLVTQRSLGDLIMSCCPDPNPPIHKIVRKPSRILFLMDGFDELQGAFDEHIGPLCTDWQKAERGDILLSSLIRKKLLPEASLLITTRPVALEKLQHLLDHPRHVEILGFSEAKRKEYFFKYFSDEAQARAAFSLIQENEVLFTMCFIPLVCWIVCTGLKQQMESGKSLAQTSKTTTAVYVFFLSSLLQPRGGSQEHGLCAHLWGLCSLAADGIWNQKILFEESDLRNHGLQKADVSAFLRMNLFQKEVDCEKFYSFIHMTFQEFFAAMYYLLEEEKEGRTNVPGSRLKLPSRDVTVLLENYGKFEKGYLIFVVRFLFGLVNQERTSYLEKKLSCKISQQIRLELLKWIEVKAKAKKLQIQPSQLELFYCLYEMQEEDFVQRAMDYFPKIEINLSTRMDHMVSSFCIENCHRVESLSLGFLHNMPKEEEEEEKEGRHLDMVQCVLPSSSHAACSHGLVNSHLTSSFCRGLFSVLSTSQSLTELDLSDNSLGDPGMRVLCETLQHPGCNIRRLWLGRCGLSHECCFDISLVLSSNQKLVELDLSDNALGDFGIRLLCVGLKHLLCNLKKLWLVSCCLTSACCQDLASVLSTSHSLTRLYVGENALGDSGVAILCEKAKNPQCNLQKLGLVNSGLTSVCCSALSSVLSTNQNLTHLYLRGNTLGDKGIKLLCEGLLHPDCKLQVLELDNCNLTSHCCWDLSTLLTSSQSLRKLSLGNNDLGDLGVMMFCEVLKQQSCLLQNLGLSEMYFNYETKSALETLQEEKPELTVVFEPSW

Structure (SMILES)	IC50 (NLRP3 inflammasome)	IC50 (IL-6)
Cc1c[nH]c2c(N[C@@H]3CCCN(C)C3)nnc(-c3ccc(F)cc3)c12 [Compound 73]	100 to 500 nM	≥ 10000 nM
CN1CCC[C@@H](Oc2nnc(-c3ccc(C(F)(F)F)cc3)c3ccn(C)c23)C1 [Compound 85]	100 to 500 nM	5000 to 10000 nM
CN1CCC[C@@H](N(C)c2nnc(-c3ccc(C(F)(F)F)cc3)c3cc[nH]c23)C1 [Compound 25]	100 to 500 nM	≥ 10000 nM
CN1CCC[C@@H](Nc2nnc(-c3ccc(C(F)(F)F)cc3)c3nc[nH]c23)C1 [Compound 20]	500 to 1000 nM	≥ 10000 nM
CN1CCC[C@@H](Nc2nnc(-c3ccc(C(F)(F)F)cc3)c3ccoc23)C1 [Compound 53]	10 to 100 nM	≥ 10000 nM
CN1CCC[C@@H](Nc2nnc(-c3ccc(C(F)(F)F)cc3)c3c2cnn3C)C1 [Compound 32]	< 10 nM	≥ 10000 nM
Cc1c[nH]c2c(-c3ccc(F)cc3)nnc(N[C@@H]3CCCN(C)C3)c12 [Compound 74]	≥ 10000 nM	≥ 10000 nM
CN1CCC[C@@H](N(C)c2nnc(-c3ccc(F)cc3O)c3ccoc23)C1 [Compound 107]	100 to 500 nM	≥ 10000 nM
CCN1CCC[C@@H](Nc2nnc(-c3ccc(C(F)(F)F)cc3)c3ccn(C)c23)C1 [Compound 76]	< 10 nM	≤ 1000 nM
CN1CCC[C@@H](Nc2nnc(-c3ccc(C#N)cc3C(F)F)c3cnn(C)c23)C1 [Compound 117]	100 to 500 nM	≥ 10000 nM
N#Cc1ccc(-c2nnc(N[C@@H]3CCCN(CCO)C3)c3sncc23)c(O)c1 [Compound 151]	< 10 nM	≥ 10000 nM
Cn1ccc2c(-c3ccc(C#N)cc3O)nnc(N[C@@H]3CCCN(CCO)C3)c21 [Compound 147]	< 10 nM	≥ 10000 nM
CN1CCC[C@@H](Nc2nnc(-c3ccc(Cl)cc3)c3ccn(C)c23)C1 [Compound 80]	< 10 nM	≥ 10000 nM
Cc1cc(C(F)(F)F)cnc1-c1nnc(N[C@@H]2CCCN(C)C2)c2c1cnn2C [Compound 137]	10 to 100 nM	≥ 10000 nM
Cc1cc(-c2nnc(N[C@@H]3CCCN(C)C3)c3[nH]ccc23)ccc1C(F)(F)F [Compound 23]	1000 to 10000 nM	5000 to 10000 nM
COCCN1CCC[C@@H](Nc2nnc(-c3ccc(C#N)cc3O)c3ccn(C)c23)C1 [Compound 153]	10 to 100 nM	≥ 10000 nM
Cn1ccc2c(-c3ccc(C#N)cc3O)nnc(N[C@@H]3CCCN(c4ccccc4)C3)c21 [Compound 161]	≥ 10000 nM	≥ 10000 nM
Cc1cc(C(F)(F)F)ccc1-c1nnc(N[C@@H]2CCCN(C)C2)c2[nH]ccc12 [Compound 6]	< 10 nM	5000 to 10000 nM
CN1CCC[C@@H](Oc2nnc(-c3ccc(F)cc3O)c3ccsc23)C1 [Compound 86]	100 to 500 nM	≥ 10000 nM
CN1CCC[C@@H](N(C)c2nnc(-c3ccc(C(F)(F)F)cc3)c3ccoc23)C1 [Compound 93]	1000 to 10000 nM	≥ 10000 nM
Cc1cc2c(N[C@@H]3CCCN(C)C3)nnc(-c3ccc(C(F)(F)F)cc3)c2[nH]1 [Compound 75]	1000 to 10000 nM	≥ 10000 nM
CN1CCC[C@@H](Nc2nnc(-c3ccc(C#N)cc3O)c3c(Cl)cn(C)c23)C1 [Compound 157]	100 to 500 nM	≥ 10000 nM
